Several values for one entry are separate records, joined by “and”; a condition that tells them apart may be missing. Equal entries are not always repeated. Where two headings read alike, the source gives them in different places.
Target: T1, androgen receptor (AdEasy+rAR, COS-7 cells) (Rattus norvegicus, UniProt P15207)
T1 construct: expressed in transfected cells; host or cells: COS-7 cells transduced with adenovirus AdEasy+rAR
T1 sequence (P15207 1-902): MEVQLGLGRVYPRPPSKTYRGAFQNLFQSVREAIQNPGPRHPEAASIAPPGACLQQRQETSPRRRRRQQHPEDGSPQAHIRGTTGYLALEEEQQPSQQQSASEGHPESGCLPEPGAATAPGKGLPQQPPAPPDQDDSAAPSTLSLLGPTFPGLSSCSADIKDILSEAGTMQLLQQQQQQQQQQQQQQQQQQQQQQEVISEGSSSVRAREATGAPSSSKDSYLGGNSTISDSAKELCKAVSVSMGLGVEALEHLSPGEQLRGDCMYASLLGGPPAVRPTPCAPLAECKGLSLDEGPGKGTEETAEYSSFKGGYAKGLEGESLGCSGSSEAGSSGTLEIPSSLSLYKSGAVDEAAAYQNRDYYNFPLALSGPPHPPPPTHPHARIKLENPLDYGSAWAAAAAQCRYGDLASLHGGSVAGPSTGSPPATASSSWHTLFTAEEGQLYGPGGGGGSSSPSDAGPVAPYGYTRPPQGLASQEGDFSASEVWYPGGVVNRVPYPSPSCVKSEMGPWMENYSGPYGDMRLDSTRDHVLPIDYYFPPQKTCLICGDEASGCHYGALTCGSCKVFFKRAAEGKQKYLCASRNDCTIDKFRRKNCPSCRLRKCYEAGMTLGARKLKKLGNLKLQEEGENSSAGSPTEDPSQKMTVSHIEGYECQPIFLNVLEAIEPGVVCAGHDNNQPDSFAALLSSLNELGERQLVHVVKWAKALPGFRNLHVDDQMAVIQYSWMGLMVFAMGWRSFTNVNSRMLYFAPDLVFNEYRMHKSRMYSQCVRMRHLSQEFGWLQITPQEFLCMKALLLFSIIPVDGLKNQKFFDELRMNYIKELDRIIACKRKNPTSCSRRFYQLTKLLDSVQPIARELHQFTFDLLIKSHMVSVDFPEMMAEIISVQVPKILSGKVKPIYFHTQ
Assay: COS-7 Whole-Cell Androgen Receptor Binding Assay, Adenovirus Transduction
Conditions: for % Inhibition, COS Binding / inhibition at 3 µM: concentration of 3000 nM
Method in brief: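 COS-7 cells in phenol red-free DMEM/F12 with 10% charcoal-treated FBS were transduced with AdEasy+rAR adenovirus (moi 1:50 per well), exposed to test compound in duplicate and incubated for 48 h at 37° C. Cells were then lysed in 0.5% Triton X-100 and bound radioactivity counted by scintillation.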

[1] = read-out: IC50 (nM), COS Binding

Row | Compound | % Inhibition, COS Binding [%] | inhibition at 3 µM [%] | IC50 [1] | % Inhibition, COS Binding (3 µM) | IC50 (IC50 (nM), COS Binding) [nM]
1 | CC(O)(C[S+]([O-])Cc1ccccc1)c1cc2cc([N+](=O)[O-])c(C(F)(F)F)cc2[nH]1 (mixture of isomers) [Compound 161] | 20 |  |  |  | 
2 | COc1ccc(S(=O)(=O)CC(C)(O)c2cc3cc(Cl)c(C(F)(F)F)cc3[nH]2)cc1 (racemic) [Compound 129] | 10 |  |  |  | 
3 | COc1ccc(SCC(C)(O)c2cc3cc(Cl)c(C(F)(F)F)cc3n2S(C)(=O)=O)cc1 (racemic) [Compound 130] | −8 |  |  |  | 
4 | CCSCC(C)(O)c1cc2cc([N+](=O)[O-])c(C(F)(F)F)cc2[nH]1 (racemic) [Compound 142] |  | 90 | 220 nM |  | 
5 | CCSCC(C)(O)c1cc2cc([N+](=O)[O-])c(C(F)(F)F)cc2n1C (racemic) [Compound 165] |  | 69 | > 3000 nM |  | 
6 | CSCC(C)(O)c1cc2cc([N+](=O)[O-])c(C(F)(F)F)cc2[nH]1 (single isomer, unassigned) [Compound 144] |  |  | 375 nM |  | 
7 | CSCC(C)(O)c1cc2cc([N+](=O)[O-])c(C(F)(F)F)cc2[nH]1 (single isomer, unassigned) [Compound 145] |  | 84.7 | 36.7 nM |  | 
8 | CCSCC(C)(O)c1cc2cc([N+](=O)[O-])c(C(F)(F)F)cc2[nH]1 (single isomer, unassigned) [Compound 149] |  | 63 | 780 nM and > 790 nM |  | 
9 | CCSCC(C)(O)c1cc2cc([N+](=O)[O-])c(C(F)(F)F)cc2[nH]1 (single isomer, unassigned) [Compound 150] |  |  | 165 nM and 627 nM | 81% and 74% | 
10 | CC[S+]([O-])C[C@](C)(O)c1cc2cc([N+](=O)[O-])c(C(F)(F)F)cc2[nH]1 (stereo in doubt) [Compound 155, 1-Ethanesulfinyl-2-(5-nitro-6-trifluoromethyl-1H-indol-2-yl)-propan-2-ol] |  | 35 |  |  | 
11 | CSCCC(C)(O)c1cc2cc([N+](=O)[O-])c(C(F)(F)F)cc2[nH]1 (stereo not shown) [Compound 47] |  | 78 | > 1000 nM |  | 
12 | CC(O)(CCS(C)(=O)=O)c1cc2cc([N+](=O)[O-])c(C(F)(F)F)cc2[nH]1 (stereo not shown) [Compound 49] |  | 30 | > 3000 nM |  | 
13 | CC(O)(CSc1ccc(N)cc1)c1cc2cc(Cl)c(C(F)(F)F)cc2[nH]1 (stereo not shown) [Compound 104] |  | 94 |  |  | 
14 | CC(O)(CS(=O)(=O)c1ccc(N)cc1)c1cc2cc(Cl)c(C(F)(F)F)cc2[nH]1 (stereo not shown) [Compound 118] |  | 62 | > 1500 nM |  | 
15 | CC(O)(CSc1ccc(O)cc1)c1cc2cc(Cl)c(C(F)(F)F)cc2[nH]1 (stereo not shown) [Compound 120] |  | 86 | 205 nM |  | 
16 | CC(O)(CS(=O)(=O)c1ccc(O)cc1)c1cc2cc(Cl)c(C(F)(F)F)cc2[nH]1 (stereo not shown) [Compound 121] |  | 72 | > 1800 nM |  | 
17 | CC(O)(CSc1ccc([N+](=O)[O-])cc1)c1cc2cc(Cl)c(C(F)(F)F)cc2[nH]1 (stereo not shown) [Compound 122] |  | 66 | > 1600 nM |  | 
18 | COc1ccc(SCC(C)(O)c2cc3cc(Cl)c(C(F)(F)F)cc3[nH]2)cc1 (stereo not shown) [Compound 131] |  | 84 | > 1600 nM |  | 
19 | CSCC(C)(O)c1cc2cc(Cl)c(C(F)(F)F)cc2[nH]1 (stereo not shown) [Compound 135] |  | 98 | 320 nM |  | 

Row | Compound | % Inhibition, COS Binding [%] | inhibition at 3 µM [%] | IC50 [1] | % Inhibition, COS Binding (3 µM) | IC50 (IC50 (nM), COS Binding) [nM]
20 | CSCC(C)(O)c1cc2cc(C#N)c(C(F)(F)F)cc2[nH]1 (stereo not shown) [Compound 136] |  | 4.8 | 527 nM |  | 
21 | CC(O)(CS(C)(=O)=O)c1cc2cc(Cl)c(C(F)(F)F)cc2[nH]1 (stereo not shown) [Compound 138] |  | 78 | 317 nM |  | 
22 | CC(O)(CS(C)(=O)=O)c1cc2cc([N+](=O)[O-])c(C(F)(F)F)cc2[nH]1 (stereo not shown) [Compound 140] |  |  | > 1500 nM | 51.5% | 
23 | CCSCC(C)(O)c1cc2cc([N+](=O)[O-])c(C(F)(F)F)cc2n1S(C)(=O)=O (stereo not shown) [Compound 141] |  | 42 | > 3000 nM |  | 
24 | CCS(=O)(=O)CC(C)(O)c1cc2cc([N+](=O)[O-])c(C(F)(F)F)cc2[nH]1 (stereo not shown) [Compound 143] |  | 68 | > 1500 nM |  | 
25 | CC(O)(CS(C)(=O)=O)c1cc2cc([N+](=O)[O-])c(C(F)(F)F)cc2[nH]1 (stereo not shown) [Compound 147] |  |  | > 3000 nM | 6.1% | 
26 | CC(O)(CS(C)(=O)=O)c1cc2cc([N+](=O)[O-])c(C(F)(F)F)cc2[nH]1 (stereo not shown) [Compound 148] |  |  | > 2400 nM | 32% | 
27 | CCS(=O)(=O)CC(C)(O)c1cc2cc([N+](=O)[O-])c(C(F)(F)F)cc2[nH]1 (stereo not shown) [Compound 151] |  |  | > 970 nM and 2190 nM | 55% | 
28 | CCS(=O)(=O)C[C@](C)(O)c1cc2cc([N+](=O)[O-])c(C(F)(F)F)cc2[nH]1 [Compound 156, 1-Ethanesulfonyl-2-(5-nitro-6-trifluoromethyl-1H-indol-2-yl)-propan-2-ol] |  | 42 |  | 52% | > 1000
29 | CCSCC(O)c1cc2cc([N+](=O)[O-])c(C(F)(F)F)cc2[nH]1 (stereo not shown) [Compound 158] |  | 62 | 160 nM and 550 nM | 56% | 
30 | CC(O)(CSCc1ccccc1)c1cc2cc([N+](=O)[O-])c(C(F)(F)F)cc2[nH]1 (stereo not shown) [Compound 160] |  | 84 | 250 nM |  | 
31 | CC(C)SCC(C)(O)c1cc2cc([N+](=O)[O-])c(C(F)(F)F)cc2[nH]1 (stereo not shown) [Compound 164] |  | 68 | > 1000 nM |  | 
32 | CCCSCC(C)(O)c1cc2cc([N+](=O)[O-])c(C(F)(F)F)cc2[nH]1 (stereo not shown) [Compound 168] |  | 60 | > 3000 nM |  | 
33 | CCSCC(O)(CC)c1cc2cc([N+](=O)[O-])c(C(F)(F)F)cc2[nH]1 (stereo not shown) [Compound 169] |  | 90 | 48 nM |  | 
34 | CC(C)CSCC(C)(O)c1cc2cc([N+](=O)[O-])c(C(F)(F)F)cc2[nH]1 (stereo not shown) [Compound 170] |  | 67 | > 3000 nM |  | 
35 | CC(O)(CSCC(F)(F)F)c1cc2cc([N+](=O)[O-])c(C(F)(F)F)cc2[nH]1 (stereo not shown) [Compound 171] |  | 92 | 145 nM | 94% | 
36 | CC(O)(CSC1CCCC1)c1cc2cc([N+](=O)[O-])c(C(F)(F)F)cc2[nH]1 (stereo not shown) [Compound 173] |  | 17 | > 3000 nM |  | 
37 | CCC(O)(CS(=O)(=O)CC)c1cc2cc([N+](=O)[O-])c(C(F)(F)F)cc2[nH]1 (stereo not shown) [Compound 176] |  | 75 |  |  | 
